Data from PubChem BioAssay (NCI).
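Each compound was tested at five concentrations against cells in 96-well plates for 48 hours. Here, GI50 denotes the concentration required for 50% inhibition of growth. The concentration for full growth arrest is given as TGI.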

Legend:
Assay in all cases: NCI-60 cell line screen, 48 h
KM12 colon = test system: KM12 colon
SNB-75 CNS = test system: SNB-75 CNS
NCI-H226 lung = test system: NCI-H226 lung
SF-539 CNS = test system: SF-539 CNS
SK-MEL-28 melanoma = test system: SK-MEL-28 melanoma
ACHN renal = test system: ACHN renal
OVCAR-8 ovarian = test system: OVCAR-8 ovarian
HS 578T breast = test system: HS 578T breast
MCF7 breast = test system: MCF7 breast
SK-MEL-5 melanoma = test system: SK-MEL-5 melanoma
786-0 renal = test system: 786-0 renal
HOP-62 NSCLC = test system: HOP-62 NSCLC
CAKI-1 renal = test system: CAKI-1 renal
TK-10 renal = test system: TK-10 renal
HT29 colon = test system: HT29 colon
MDA-MB-231 breast = test system: MDA-MB-231 breast
SNB-19 CNS = test system: SNB-19 CNS
SK-OV-3 ovarian = test system: SK-OV-3 ovarian
OVCAR-3 ovarian = test system: OVCAR-3 ovarian
M14 melanoma = test system: M14 melanoma
MALME-3M melanoma = test system: MALME-3M melanoma
HCT-15 colon = test system: HCT-15 colon
EKVX NSCLC = test system: EKVX NSCLC
A549 NSCLC = test system: A549 NSCLC
BT-549 breast = test system: BT-549 breast
RPMI-8226 leukemia = test system: RPMI-8226 leukemia
OVCAR-5 ovarian = test system: OVCAR-5 ovarian
PC-3 prostate = test system: PC-3 prostate
SN12C renal = test system: SN12C renal
MOLT-4 leukemia = test system: MOLT-4 leukemia
UO-31 renal = test system: UO-31 renal
T-47D breast = test system: T-47D breast
DU-145 prostate = test system: DU-145 prostate
HOP-92 NSCLC = test system: HOP-92 NSCLC
SR leukemia = test system: SR leukemia
MDA-MB-435 = test system: MDA-MB-435
IGROV1 ovarian = test system: IGROV1 ovarian
LOX IMVI melanoma = test system: LOX IMVI melanoma
SW-620 colon = test system: SW-620 colon
NCI-H522 lung = test system: NCI-H522 lung
NCI-H23 lung = test system: NCI-H23 lung
A498 renal = test system: A498 renal
NCI-H460 lung = test system: NCI-H460 lung
HL-60(TB) leukemia = test system: HL-60(TB) leukemia
U251 CNS = test system: U251 CNS
CCRF-CEM leukemia = test system: CCRF-CEM leukemia
HCT-116 colon = test system: HCT-116 colon
UACC-257 melanoma = test system: UACC-257 melanoma
OVCAR-4 ovarian = test system: OVCAR-4 ovarian
SF-268 CNS = test system: SF-268 CNS
UACC-62 melanoma = test system: UACC-62 melanoma
K-562 leukemia = test system: K-562 leukemia
HCC-2998 colon = test system: HCC-2998 colon
SF-295 CNS = test system: SF-295 CNS
COLO 205 colon = test system: COLO 205 colon

Work on COc1cccc(C(N)=Nc2ccc(OCCCCCCCCn3cncn3)cc2)c1 yielded a GI50 (KM12 colon) of 425 nM, a TGI (KM12 colon) of over 65.5 µM and a GI50 (SNB-75 CNS) of 262 nM. For the same molecule, the TGI (SNB-75 CNS) was over 45.4 µM, the GI50 (NCI-H226 lung) was 295 nM and the TGI (NCI-H226 lung) was 2050 nM. It also gave a GI50 (SF-539 CNS) of 235 nM, a TGI (SF-539 CNS) of 585 nM and a GI50 (SK-MEL-28 melanoma) of 693 nM. For the same molecule, the TGI (SK-MEL-28 melanoma) was 24.1 µM, the GI50 (ACHN renal) was 650 nM and the TGI (ACHN renal) was 39.4 µM. The GI50 (OVCAR-8 ovarian) was 342 nM, the TGI (OVCAR-8 ovarian) was 2100 nM and the GI50 (HS 578T breast) was 374 nM. It also gave a TGI (HS 578T breast) of 38.9 µM, a GI50 (MCF7 breast) of 266 nM and a TGI (MCF7 breast) of 15 µM. For the same molecule, the GI50 (SK-MEL-5 melanoma) was 286 nM, the TGI (SK-MEL-5 melanoma) was 1090 nM and the GI50 (786-0 renal) was 812 nM. For the same molecule, the TGI (786-0 renal) was 26.9 µM, the GI50 (HOP-62 NSCLC) was 614 nM and the TGI (HOP-62 NSCLC) was 18.5 µM. For the same molecule, the GI50 (CAKI-1 renal) was 473 nM, the TGI (CAKI-1 renal) was 45.4 µM and the GI50 (TK-10 renal) was 799 nM. For the same molecule, the TGI (TK-10 renal) was over 100 µM, the GI50 (HT29 colon) was 319 nM and the TGI (HT29 colon) was 1420 nM. It also gave a GI50 (MDA-MB-231 breast) of 385 nM, a TGI (MDA-MB-231 breast) of 4.89 µM and a GI50 (SNB-19 CNS) of 576 nM. The TGI (SNB-19 CNS) was over 67.7 µM, the GI50 (SK-OV-3 ovarian) was 540 nM and the TGI (SK-OV-3 ovarian) was 49.2 µM. It also gave a GI50 (OVCAR-3 ovarian) of 369 nM, a TGI (OVCAR-3 ovarian) of 25.4 µM and a GI50 (M14 melanoma) of 324 nM. The TGI (M14 melanoma) was 18.9 µM, the GI50 (MALME-3M melanoma) was 310 nM and the TGI (MALME-3M melanoma) was 17.4 µM. The GI50 (HCT-15 colon) was 330 nM, the TGI (HCT-15 colon) was 12.4 µM and the GI50 (EKVX NSCLC) was 429 nM. For the same molecule, the TGI (EKVX NSCLC) was over 75.2 µM, the GI50 (A549 NSCLC) was 581 nM and the TGI (A549 NSCLC) was over 100 µM. The GI50 (BT-549 breast) was 975 nM, the TGI (BT-549 breast) was 22.3 µM and the GI50 (RPMI-8226 leukemia) was 293 nM. The TGI (RPMI-8226 leukemia) was 4.87 µM, the GI50 (OVCAR-5 ovarian) was 493 nM and the TGI (OVCAR-5 ovarian) was over 45.6 µM. For the same molecule, the GI50 (PC-3 prostate) was 424 nM, the TGI (PC-3 prostate) was over 50.3 µM and the GI50 (SN12C renal) was 485 nM. It also gave a TGI (SN12C renal) of 14.3 µM, a GI50 (MOLT-4 leukemia) of 596 nM and a TGI (MOLT-4 leukemia) of over 100 µM. The GI50 (UO-31 renal) was 544 nM, the TGI (UO-31 renal) was 19.9 µM and the GI50 (T-47D breast) was 426 nM. The TGI (T-47D breast) was over 72.4 µM, the GI50 (DU-145 prostate) was 417 nM and the TGI (DU-145 prostate) was 31.5 µM. For the same molecule, the GI50 (HOP-92 NSCLC) was 1630 nM, the TGI (HOP-92 NSCLC) was 30.2 µM and the GI50 (SR leukemia) was 319 nM. For the same molecule, the TGI (SR leukemia) was over 56.9 µM, the GI50 (MDA-MB-435) was 130 nM and the TGI (MDA-MB-435) was 378 nM. The GI50 (IGROV1 ovarian) was 530 nM, the TGI (IGROV1 ovarian) was 21 µM and the GI50 (LOX IMVI melanoma) was 522 nM. It also gave a TGI (LOX IMVI melanoma) of 11.8 µM, a GI50 (SW-620 colon) of 387 nM and a TGI (SW-620 colon) of over 100 µM. The GI50 (NCI-H522 lung) was 274 nM, the TGI (NCI-H522 lung) was 1290 nM and the GI50 (NCI-H23 lung) was 385 nM. For the same molecule, the TGI (NCI-H23 lung) was 15.5 µM, the GI50 (A498 renal) was 14.9 µM and the TGI (A498 renal) was 59.5 µM. It also gave a GI50 (NCI-H460 lung) of 356 nM, a TGI (NCI-H460 lung) of over 33.5 µM and a GI50 (HL-60(TB) leukemia) of 306 nM. The TGI (HL-60(TB) leukemia) was 1080 nM, the GI50 (U251 CNS) was 333 nM and the TGI (U251 CNS) was 4.57 µM. It also gave a GI50 (CCRF-CEM leukemia) of 292 nM, a TGI (CCRF-CEM leukemia) of 10.4 µM and a GI50 (HCT-116 colon) of 417 nM. For the same molecule, the TGI (HCT-116 colon) was 17.1 µM, the GI50 (UACC-257 melanoma) was 2020 nM and the TGI (UACC-257 melanoma) was 27.8 µM. The GI50 (OVCAR-4 ovarian) was 3.18 µM, the TGI (OVCAR-4 ovarian) was over 100 µM and the GI50 (SF-268 CNS) was 1990 nM. For the same molecule, the TGI (SF-268 CNS) was 42.8 µM, the GI50 (UACC-62 melanoma) was 435 nM and the TGI (UACC-62 melanoma) was 17.2 µM. The GI50 (K-562 leukemia) was 230 nM, the TGI (K-562 leukemia) was over 100 µM and the GI50 (HCC-2998 colon) was 380 nM. The TGI (HCC-2998 colon) was 3.52 µM, the GI50 (SF-295 CNS) was 320 nM and the TGI (SF-295 CNS) was 11 µM. For the same molecule, the GI50 (COLO 205 colon) was 315 nM and the TGI (COLO 205 colon) was 1090 nM.
